Measured values from patent US12110507B2, “Method for preparing functional hepatic progenitor cells or hepatic cells, or functional small intestinal epithelial progenitor cells or small intestinal epithelial cells” (priority 2017, dated 2024).
Where two headings read alike, the source gives them in different places.

Tests used:
[1] = system: hepatic progenitor cells differentiated from iPSC-K cells; test: culture of hepatic progenitor cells differentiated from iPSC-K cells in the presence of an antibiotic (selection); type: cell-based, human; conditions: for colony of cells after culture with antibiotic: concentration and culture period of each antibiotic as in Table 5
Procedure: The iPSC-K cells were cultured until becoming approximately 80% confluent. […] The colony was dissociated by gentle tapping of the dish and then suspended by the addition of hiPSC medium. The obtained cell suspension was transferred to a dish coated with gelatin, and incubated under conditions of 15 minutes, 37° C., and 5% CO2 to remove the feeder cells. The supernatant was centrifuged, and the recovered iPSC-K cells were suspended in EB medium (having the composition described below).
The EBs were recovered and suspended in XF32 medium (Uchida, H. et al., JCI Insight, 2017; 2 (1): e86492, doi:10.1172/jci.insight.86492). The EBs were placed at a concentration of 20 EBs/well in a 24-well plate coated with collagen, and differentiated into hepatic progenitor cells by adhesion culture at 37° C. for 35 days in 5% CO2. Then, the cells were further cultured for 2 days using modified SCM-6F8 medium (Wang, X. et al., Nature, 2015; 522 (7555): 173-8, doi:10.1038/nature14484, Epub 2015 Jun. 3) supplemented with 3 μg/ml puromycin (Wako Pure Chemical Industries, Ltd., #160-23151).
Functional hepatic progenitor cells were prepared from iPSC-K cells by the same procedures as in the sections (2-1) and (2-2) except that various antibiotics were used instead of puromycin. The antibiotics used and their concentrations, and the number of culture days will be shown below.

[2] = system: hepatic progenitor cells differentiated from SEES5 cells; test: culture of hepatic progenitor cells differentiated from SEES5 cells in the presence of an antibiotic (selection); type: cell-based, human; conditions: for colony of cells after culture with antibiotic: concentration and culture period of each antibiotic as in Table 6 (3 days)
[3] = system: functional hepatic progenitor cells prepared from SEES5 cells; conditions: 5 mg/ml or 8 mg/ml ammonia, 2 days, after puromycin selection
[4] = system: functional hepatic progenitor cells prepared from iPSC-O cells; test: selective culture with ammonia of functional hepatic progenitor cells prepared from iPSC-O cells; qRT-PCR after differentiation
[5] = system: gut organoid differentiated from Edom-iPS cells; test: culture of gut organoid in the presence of puromycin; type: cell-based; conditions: 2 days
Procedure: Gut organoid was prepared from Edom-iPS cells (PLoS Genet., 2011; 7 (5):e1002085, doi.org/10.1371/journal.pgen.1002085), menstrual blood-derived iPS cells, according to the procedures described in Uchida, H. et al., JCI Insight, 2017; 2 (1): e86492. After a lapse of 3 months, the gut organoid was cultured for 2 days in the presence of […] puromycin.

[6] = conditions of Table 6, data not shown
[7] = hepatic cells differentiated from cells selected with ammonia, qRT-PCR, vs no ammonia selection

Compound | colony of cells after culture with antibiotic [1] | colony of cells after culture with antibiotic [2] | CYP3A4 expression of the cells selected with antibiotic [2, 6] | other results
CN[C@@H]1[C@@H](O)[C@@H](O[C@@H]2[C@@H](O)[C@H](O[C@H]3O[C@H]([C@@H](C)O)[C@@H](O)[C@H](O)[C@H]3N)[C@@H](N)C[C@H]2N)OC[C@]1(C)O [G418] | A colony of the cells was obtained | A colony of the cells was obtained | markedly high level | 
Cc1c(N)nc([C@H](CC(N)=O)NC[C@H](N)C(N)=O)nc1C(=O)N[C@H](C(=O)N[C@H](C)[C@@H](O)[C@H](C)C(=O)N[C@H](C(=O)NCCC1=N[C@@H](c2nc(C(=O)NCCCCN=C(N)N)cs2)CS1)[C@@H](C)O)[C@@H](O[C@@H]1O[C@@H](CO)[C@@H](O)[C@H](O)[C@@H]1O[C@H]1O[C@H](CO)[C@@H](O)[C@H](OC(N)=O)[C@@H]1O)c1cnc[nH]1 [Zeocin™, phleomycin D1] | A colony of the cells was obtained | A colony of the cells was obtained |  | CYP3A4 expression of the cells selected with antibiotic [2]: markedly high level
N [ammonia] |  |  |  | colony formation after selective culture with ammonia [3]: A colony was formed; colony formation after selective culture with ammonia ([4]; 5 mg/ml or 8 mg/ml ammonia, 2 days, after puromycin selection): A colony was formed; expression level of CPS1 [4, 7]: Elevation; expression level of CYP3A4 [4, 7]: further elevate; expression level of OTC [4, 7]: Elevation
CN(CC[C@H](N)CC(=O)N[C@H]1C=C[C@H](n2ccc(N)nc2=O)O[C@@H]1C(=O)O)C(=N)N [blasticidin S] | A colony of the cells was obtained | A colony of the cells was obtained | markedly high level | 
COc1ccc(C[C@H](N)C(=O)N[C@H]2[C@@H](O)[C@H](n3cnc4c(N(C)C)ncnc43)O[C@@H]2CO)cc1 [puromycin] |  | A colony of the cells was obtained | markedly high level | colony of cells after culture in the presence of puromycin ([1]; 3 μg/ml puromycin, 2 days, modified SCM-6F8 medium): colony of the cells; cells obtained after puromycin culture of gut organoid ([5]; 2 mg/ml puromycin): Functional small intestinal epithelial progenitor cells having the ability to metabolize drugs were obtained; cells obtained after puromycin culture of gut organoid ([5]; 400 mg/ml puromycin): Functional small intestinal epithelial progenitor cells having the ability to metabolize drugs were obtained
phleomycin | A colony of the cells was obtained | A colony of the cells was obtained |  | 
